Test results: patent publication US20230146455A1, “TREATMENT OF INFLAMMATORY DISEASES WITH PEPTIDES AND PHARMACEUTICAL COMPOSITIONS” (Yuyu Pharma, Inc., priority 2020, published 2023)

Tests used:
NF-kB (p65) = NF-kB (p65) transcription activity in poly I:C stimulated primary human corneal epithelial cells (Example 5); type: cell-based
From the text: (§1) To determine the effect of YDE053 on NF-kB (p65) transcription activity in poly I:C stimulated primary human corneal epithelial cells. Study Plan • Test System: Primary Human Corneal Epithelial cells • Assay Format: 96-well plate format • Method of Detection: Enzyme-linked immunosorbent assay • Assay Controls: Hinokitiol Assay protocol as shown below was used to determine the significant effect of test compounds. The data was statistically analyzed by one-way ANOVA with a Bonferroni post test comparing all the columns. The significance was represented by the p value.

[1] = system: IL-6 cytokine release in poly I:C stimulated primary human corneal epithelial cells; experiment: Soluble IL-6 cytokine release in poly I:C stimulated primary human corneal epithelial cells by ELISA (Example 2); type: cell-based; details: 30, 10, 1, 0.1, 0.01, 0.001 μM, 25 μg/mL poly I:C, 24 hours
Experimental: Assay protocol as shown below was used to determine the significant effect of test compounds. The data was statistically analyzed by one-way ANOVA with a Bonferroni post test comparing all the columns. The significance was represented by the p value.
Selected YDE peptides (YDE-093, -096, -100, -101, -102, -103, -104, -105, -106 and -107) were evaluated by assessing the soluble IL-6 cytokine release in poly I:C stimulated primary human corneal epithelial cells by ELISA (Biolegend, 430504).
Specifically, primary corneal epithelial cells (ATCC, ATCC PCS-700-010) were seeded on a 6-well culture plate containing the Corneal Epithelial Cell Basal Medium (ATCC, ATCC PCS-700-030) in the Corneal Epithelial Cell Growth Kit (ATCC, ATCC PCS-700-040) in an amount of 1.2×10^5 cells per well, which was then cultured for 24 hours under the conditions of 37° C. and 5% CO2. Then, cells were washed with 1×PBS and replaced with serum free medium which was then cultured for 2 hours under the conditions of 37° C. and 5% CO2.
After 2 hours, cells were treated with compounds at 6 differential concentrations (Hinokitiol/YDE peptides at 30, 10, 1, 0.1, 0.01, and 0.001 μM) with the DMSO final 0.5% and then cultured for 1 hour under the conditions of 37° C. and 5% CO2.
After 1 hour, cells were further treated with 25 μg/mL of poly I:C and cultured for 24 hours under the conditions of 37° C. and 5% CO2.
Following incubation, the supernatant was collected for IL-6 levels was assessed by Sandwich ELISA (Enzyme-linked immunosorbent assay) following manufacturer's instructions. The data was statistically analyzed by one-way ANOVA with a Bonferroni post-test comparing all the columns. The significance was represented by the p value.

[2] = system: IL-6 cytokine release in poly I:C stimulated primary human corneal epithelial cells; experiment: Soluble IL-6 cytokine release in poly I:C stimulated primary human corneal epithelial cells by ELISA (Example 6); type: cell-based
From the text: as §1, with “compound by assessing the soluble IL-6 cytokine release” for “YDE053 on NF-kB (p65) transcription activity”, “cells by ELISA.” for “cells. Study Plan”

[3] = system: IL-1beta, IL-6, IL-8, MIP-1alpha, MIP-1beta, RANTES, and TNF-alpha release in poly I:C stimulated primary human corneal epithelial cells; experiment: Panel of soluble proteins release in poly I:C stimulated primary human corneal epithelial cells by Multiplex (Example 4); type: cell-based; details: for IL-6, MFI Mean±SD: Stimulated 14801±407, p<0.05
From the text: as §1, with “compound by assessing the panel of soluble proteins release” for “YDE053 on NF-kB (p65) transcription activity”, “cells by Multiplex.” for “cells. Study Plan”, “described” for “shown”

[4] = system: CIA-induced Rheumatoid Arthritis; experiment: Mouse CIA-induced Rheumatoid Arthritis Model: body weight, hind paw thickness, clinical score (Example 13); type: in vivo; details: CII-injected mice
From the text: Clinical score: 0—no change; 1—swelling and erythema of the digit; 2—mild swelling and erythema of the limb; 3—gross swelling and erythema of the digit; 4—gross deformity and inability to use the limb.

[5] = system: primary corneal epithelial cells; experiment: Cell proliferation of primary corneal epithelial cells (CellTiter-Glo, Example 3); type: cell-based, human
Experimental: • Test System: HCE cells from ATCC. • Assay Format: 96-well plate format • Method of Detection: CellTiter-Glo Luminescent Cell Viability Assay (Pro mega, Cat #G7573) • Assay Controls: Reference compound (hEGF) and untreated cells • Test Samples: 57 • Media: Corneal Epithelial Cell Basal Medium+Cell growth kit components EXPERIMENTAL DESIGN
Specifically, 5000 primary corneal epithelial cells/well were seeded in a white opaque 96-well plate and incubated for 24 hrs in a 37° C. incubator supplemented with 5% CO2. After 24 hours, test compounds were treated at 8 different concentrations. Cells treated with compounds were incubated for 48 & 72 hrs at 37° C. in a 5% CO2 incubator. Post appropriate incubation time points, CellTiter-Glo luminescent reagent (Promega, Cat #G7573) was added to the plates and incubated at room temperature for 30 min. Luminescence signal was captured using EnVision^2104® Multilabel reader. Assay controls were reference compound (hEGF) and untreated cells.

## CC(C)c1cccc(=O)c(O)c1 [Hinokitiol]
NF-kB (p65)
  phosphorylation of (p65) NF-kB in Poly I:C stimulated cells (in words): significantly attenuate the phosphorylation of (p65) NF-kB in Poly I:C stimulated cells in a dose dependent manner
[1]
  Poly I:C induced IL-6 cytokine release (in words): significantly attenuate the Poly I:C stimulated IL-6 cytokine release in a dose dependent manner
[2]
  Poly I:C induced IL-6 cytokine release (in words): significantly attenuate the Poly I:C stimulated IL-6 cytokine release in a dose dependent manner
[3]; Multiplex
  Poly I:C stimulated cytokines release (IL-1beta, IL-6, IL-8, MIP-1alpha, MIP-1beta, RANTES, and TNF-alpha) (in words): significantly attenuate the Poly I:C stimulated cytokines release
[3]; Stimulated + 1 μM
  IL-6, MFI Mean±SD: 7004±376
[3]; Stimulated + 10 μM
  IL-6, MFI Mean±SD: 7011±471
[3]; Stimulated + 30 μM
  IL-6, MFI Mean±SD: 6759±500

## C[C@@H]1C[C@H]2[C@@H]3CCC4=CC(=O)C=C[C@]4(C)[C@@]3(F)[C@@H](O)C[C@]2(C)[C@@]1(O)C(=O)CO [dexamethasone]
[4]
  body weight (in words): lead to a decease in body weight in mice

## Human epidermal growth factor (NSDSECPLSHDGYCLHDGVCMYIEALDKYACNCVVGYIGERCQYRDLKWWELR; UniProt P01133 971-1023, looked up) [hEGF]
[5]; 48 hrs or 72 hrs, 30 to 0.01 μM
  cell proliferation (in words): Concentration dependent proliferation of primary corneal epithelial cells
[5]; highest tested concentration of 30 μM, 48 hrs
  maximum proliferation: ~40%
